{
  "source": "patent US20220267390A1",
  "about": "“MPS MODIFIED PEPTIDES AND USE THEREOF” (The Regents of the University of California, priority 2019, published 2022)",
  "format_in_all_cases": "cell-based, human",
  "key": {"[1]": {"system": "IPF fibroblast cells", "test": "cells", "details": "72 h", "experimental": "FIG. 14: Comparison of MPS-12042 (SEQ ID NO: 45) versus know tyrosine kinase inhibitor (TKLs) on the treatment of IPF fibroblast cells. Both normal and IPF lung fibroblast cells were treated with various drugs. After 72 hours, cells were subjected to MTT assays and IC50 for each drug was determined.\nHuman primary fibroblast cells were obtained from airway tissues provided from the UC Davis Medical Hospital (Sacramento, Calif.) with consent. The protocol for human tissue procurement and usage were periodically reviewed and approved by the University Human Subject Research Review Committee. Primary fibroblast cell lines, IPF-1 and IPF-2 cells, were established from IPF patients. Cells were obtained from lung biopsies and the diagnosis of IPF was supported by patient history, physical examination, pulmonary function tests, and typical high-resolution chest computed tomography findings of IPF. […] All patients fulfilled the criteria for the diagnosis of IPF as established by the American Thoracic Society and European Respiratory Society. Non-fibrotic primary control adult human lung fibroblast lines, Normal-1 and Normal-2 cells were used. These lines were established from normal lung tissue or histologically normal lung tissue adjacent to carcinoid tumor. The IPF cell line, LL97A, was purchased from the American Type Culture Collection (ATCC) (Manassas, Va.). Lung fibroblast lines were cultured in high-glucose DMEM or RPMI-1640 medium with 10% fetal bovine serum and 1% penicillin-streptomycin at 37° C. in a humidified atmosphere of 5% CO2. Fibroblasts were used between passages 4 and 8. Cells were characterized as fibroblasts as described^26.\nCells were seeded onto 96-well plates at a density of 5-10×10^3 cells per well and cultured for the indicated treatment. Cell proliferation was evaluated using a MTS assay kit (Promega, Madison, Wis.). Twenty microliters of the combined MTS/PMS solution was added into each well, incubated for 3 hours at 37° C., and the absorbance was measured at 490 nm by using an ELISA reader. For Trypan blue test, cells were plated on 12-well plates and treated with the indicated chemotherapeutic agents. After 72 hours, both attached and detached cells were collected and then stained with 0.2% trypan blue (0.1% final concentration), and the number of trypan blue-positive and -negative cells was counted using a haemocytometer under low-power microscopy. For colony-forming assays, 200 cells were seeded in each well of six-well plates. IPF-1 or IPF-2 primary cells were treated with peptides at the indicated concentrations for 10 days. Colonies were stained using 0.001% crystal violet and the number of colonies with a diameter greater than 0.5 mm was counted under an inverted microscope."}, "[2]": {"system": "primary IPF fibroblast cells", "test": "Cell motility and colony-forming ability of primary IPF fibroblasts", "experimental": "FIGS. 4A-4B: MARCKS inhibition using MPS peptide reduced primary IPF fibroblast cell motility (FIG. 4A) and colony-forming ability (FIG. 4B) n=4; *, p<0.05.\nAn in vitro cell migration assay was performed as previously described^13, 14 using Transwell chambers (8-μm pore size; Costar, Cambridge, Mass.). Briefly, 2×10^4 cells were seeded on top of the polycarbonate filters, and 0.5 ml of growth medium with scrambled or MPS peptide (100 μM) was added to both the upper and lower wells. After incubation for 20 hours, filters were swabbed with a cotton swab, fixed with methanol, and then stained with Giemsa solution (Sigma). The cells attached to the lower surface of the filter were counted under a light microscope (10× magnification).\nCells were seeded onto 96-well plates at a density of 5-10×10^3 cells per well and cultured for the indicated treatment. Cell proliferation was evaluated using a MTS assay kit (Promega, Madison, Wis.). Twenty microliters of the combined MTS/PMS solution was added into each well, incubated for 3 hours at 37° C., and the absorbance was measured at 490 nm by using an ELISA reader. […] After 72 hours, both attached and detached cells were collected and then stained with 0.2% trypan blue (0.1% final concentration), and the number of trypan blue-positive and -negative cells was counted using a haemocytometer under low-power microscopy. […]"}, "[3]": {"system": "primary IPF fibroblasts", "test": "Combination of nintedanib and MPS peptide, cell viability by MTT, Chou and Talalay CI", "details": "nintedanib 62.5-2000 nM and/or MPS 6.25-200 μM, 72 hours", "experimental": "FIGS. 12A-12E: (FIGS. 12A-12B) Combinatorial effect of MPS peptide with nintedanib on fibroblasts isolated from two IPF patients. Cells were treated with various closes of nintedanib (62.5-2000 nM) and/or MPS peptide (6.25-200 μM) for 72 hours, respectively. After single ([…]) or combined ([…]) treatment, cell viability was determined by MTT assays. (FIG. 12C) The Chou and Talalay CI (combination index) method was utilized to evaluate the therapeutic interactions between nintedanib and MPS peptide using the Calcusyn software. Gray line, additive effect of the combination of MPS peptide and the drug is represented at CI=1. (FIG. 12D) Cells were individually treated with 1 μM nintedanib, 100 μM MPS peptide or combinations of 1 μM nintedanib and 100 μM MPS peptide. After 48 hours, cell viability was determined by the trypan blue exclusion assay (n+3; *, p<0.05). […] Molecular basis of MPS peptide and its potential for increasing nintedanib efficacy. […] A kinetic assay confirmed that this peptide binds PIP2 with a dissociation constant of 17.64 nM (FIG. 10B). As expected, a decrease of PIP3 pools in whole cell lysates of MPS-treated IPF fibroblasts was observed (FIG. 10C), supporting the notion that MPS peptide is able to inhibit AKT activation through trapping PIP2. […]"}},
  "note": "Where no end group is shown, it is not given here.",
  "data": [
    {"sequence": "KKKKKRFSFKKSFKLSGFSFKKNKK [MPS peptide]", "values": [
      {"measurement": "IC50", "setting": "[1]", "result": "125 to 178", "unit": "µM"},
      {"measurement": "cell motility", "setting": "[2]", "result": "reduces"},
      {"measurement": "proliferation (colony-forming ability)", "setting": "[2]", "result": "reduces"},
      {"measurement": "Cell viability", "setting": "[3]", "result": "decreased"}
    ]}
  ]
}
